Patent publication US5292751A, “5,7-dihydroxy-2-methyl-8-(4-(3-hydroxy-1-(1-propyl))pip eridinyl)-4H-1-benzopyran-4-one, its preparation and its use” (priority 1991, dated 1994)
Read-outs that look alike come from different tables or passages of the source.

Columns and labels:
in vivo [1] = details: po, rat
in vivo [2] = type: in vivo; details: for potentiation of the secondary arthritic response: p.o. per day
Description: 2. Adjuvant induced arthritis (developing) in Rats
Female Charles Foster rats weighing 150-180 g were sorted into groups (10 rats/group). Each animal received 10 μl of 1% suspension of mycobacterium tuberculli in paraffin oil, intradermally, at the base of the tail. Drug treatment was instituted on the day of the induction of arthritis and continued for 21 days. The body weight of each rat was noted prior to the adjuvant suspension injection and subsequently all throughout for 21 days. Volumes of both hind paws were recorded on the day of injection and subsequently from 7 days onwards till the end of the experiment.

[3] = type: in vivo; details: for Therapeutic index (LD50 ED50): LD50 over carrageenin ED50
Description: 1. Acute inflammation model:
Systemic anti-inflammatory action on carrageenin-induced paw oedema in rats.
Male Charles Foster rats (120-150 g) were fasted for 18 hours, with water ad libitum. The test compound suspended in Tween^R 80 and 0.5% C.M.C. was administered orally. The control group received Tween 80 and 0.5% C.M.C. 0.05 ml of 0.5% carrageenin suspension was injected subcutaneously into the plantar region of the left hind paw. Using a Maclab differential volume meter, the paw volume was determined before the carrageenin injection and 3 and 6 hours after the injection. The percentage decrease in paw volume was calculated by the following equation: [formula] The ED50 value was calculated from the dose/response curve. Six animals were used for each group.

[4] = rat, p.o., carrageenin paw oedema, from dose/response curve

Row | Structure (SMILES) | LD50 (in vivo [1]) [mg/kg] | deaths or toxic side effects (in vivo [2]; 30 mg/kg, p.o./day, 21 days) | inhibition of adjuvant arthritis (in vivo [2]; 1.25, 2.5, 5 and 10 mg/kg/day, p.o., 21 days) | therapeutic index, comparison in words ([3]; compared with compounds B and C) | ED50, mg/kg p.o. [3, 4] [mg/kg] | Therapeutic index (LD50 ED50) ([3]; rat, p.o.) | potentiation of the secondary arthritic response (in vivo [2]; 3 mg/kg) [%] | potentiation of the secondary arthritic response (in vivo [2]; 9 mg/kg) [%] | symptoms of cytotoxicity (in vivo [2]; 18 mg/kg, p.o./day) | inhibition of adjuvant arthritis (in vivo [2]; 18 mg/kg, p.o./day, may be due to toxicity) | response in adjuvant arthritis (in vivo [2]; 3, 9, 18 and 27 mg/kg/day p.o., 21 days) | therapeutic range (in vivo [2]; p.o., daily dosing) | ED50, mg/kg p.o. ([3]; po) [mg/kg] | inhibition of adjuvant arthritis (in vivo [2]; 0.1, 1 and 10 mg/kg, p.o., 21 days) | mortality (in vivo [2]; rat, in vivo, po, 10 mg/kg/day, 10 mg/kg, p.o./day, between 9th and 11th day of administration) [%]
1 | CCCN1CC[C@H](c2c(O)cc(O)c3c(=O)cc(C)oc23)[C@H](O)C1 (single isomer, unassigned) [Compound A] | 650 | No deaths or toxic side effects were observed | dose-dependent and significant inhibition | favourable therapeutic index over compounds B and C | 20.0 | 32.5 | – | – | – | – | – | – | – | – | –
2 | Cc1cc(=O)c2c(O)cc(O)c(C3CCN(C)CC3O)c2o1 (stereo not drawn) [Compound B] | – | – | – | – | – | – | 58.6 | 64.9 | weight loss and severe diarrhoea | significant inhibition | biphasic response | narrow therapeutic range | 9.0 | – | –
3 | CN1CCC(c2c(O)cc(O)c3c(=O)cc(-c4ccccc4)oc23)C(O)C1 (stereo not drawn) [Compound C] | 27 | – | – | – | 1.3 | 20.76 | – | – | – | – | – | – | – | No inhibition of adjuvant arthritis was seen at any of the doses tested | 50
